“Also recorded” adds a separate entry of the source. Where no end group is shown, it is not given here.
Columns and labels:
[1] = tested on: pMCAO model of ischemic stroke; assay: Grip strength after pMCAO; format: in vivo, mice; conditions: 48 hours after pMCAO, 3 nmol/g i.v.
Description: The grip strength meter (BIO-GT-3, BIOSEB) allows the study of neuromuscular functions in mice by determining the maximum force that is required to make the mouse release its grip. The grip strength in individual paws was used to measure the severity of the pMCAO-induced asymmetry. The mouse is allowed to grasp a metal grid and then pulled backwards in the horizontal plane. The force applied to the grid is recorded as the peak tension. The strength of individual front paws and the total grip strength (both paws simultaneously) were measured before (baseline) and after pMCAO. Each mouse is tested in 5 sequential trials and the highest grip strength is recorded as the best score.

[2] = tested on: pMCAO model of cerebral focal ischemia; assay: pMCAO model of cerebral focal ischemia, infarct volume; format: in vivo, mice; conditions: 3 nmol/g i.v. 30 min after pMCAO
[3] = tested on: pMCAO model of ischemic stroke; assay: Rotarod performance test after pMCAO; format: in vivo, mice; conditions: 48 hours after pMCAO; for total time spent on the rod: 3 nmol/g i.v., four trials
Description: The rotarod (LE 8200, Panlab) is well suited to evaluate motor activity in rodents, experimental compound effects on central nervous system damage, or disease effects on motor coordination, assessed by the time during which the animal remains walking in a rotating drum. The rotation of the rotarod is motor drived and accelerates from 0 to 40 rounds per min (rpm) over a time period of 5 min, at which time all mice have fallen off the rod. All mice were tested in 4 repeating trials with a 20 min interval (resting time). Prior to surgery mice were pre-trained to stay on the rod for 30 seconds, at 4 rpm.

[4] = Blood-brain barrier permeability of fluorescent analogues; format: in vivo, mice; conditions: mice, conclusion for unlabeled compounds
Description: VI.ii. Blood-brain Barrier Permeability. […] After injection of the compounds, the mice are perfused with paraformaldehyde and the brains are carefully removed, post-fixed in paraformaldehyde, processed into coronal sections, and quantified for fluorescence (Example 8).
The fluorescent ligands were injected intravenously (3 nmol/g) and the location of the ligands was detected by fluorescence microscopy of coronal brain slices (n=8) mice, was evaluated 2 hours after injection. Two sections of the brain, prior to and two after the anterior commissure (n=5), were selected for BBB permeability analysis. The anterior commissure (Bregma: −0.3) was used as a fix point in the brain in order to analyse anatomically identical brain sections. The intensity of the 5-FAM fluorophore was measured semi-quantitatively using a fluorescence microscopy system (Olympus System Microscope model BX-51, Denmark) with a 10× objective (Olympus 10×/0.15 UPlanApo) connected to a high-resolution microscope digital camera (Olympus model DP70), which transferred images to an image-capturing software (Image Pro Plus software). All images were taken using the same microscope settings and with constant camera exposure time. Intensities were quantified using the ImageJ software.
5-FAM-labeled derivative of Tat-NR2B9c is designated MS23. After injection of the compounds, the mice are perfused with paraformaldehyde and the brains are carefully removed, post-fixed in paraformaldehyde, processed into coronal sections, and quantified for fluorescence.
C57BL/6 mice with 6 hour post-surgical survival time were euthanized by cervical dislocation. C57BL/6 mice with 48 hour post-surgical survival were anesthetized with an overdosed of pentobarbital (the pharmacy of the Faculty of Life Sciences, University of Copenhagen, Denmark) in order to collect blood and tissue samples. All brains were carefully removed, frozen in gaseous CO2 and cut into 6 series of 30 μm coronal cryostat sections and stored at −80° C. until further use. C57BL/6J mice used to investigate the blood-brain barrier (BBB) permeability of AB143, AB145, AB148, and MS23 were deeply anesthetized and perfused through the left ventricle, using 10 ml chilled Soerensens phosphate buffer (SB) ([…], 125 mM Na2HPO4, pH 7.4) followed by 20 mL SB containing 4% paraformaldehyde (PFA). The brains were carefully removed and post-fixed in 4% PFA for 1 hour followed by immersion in SB containing 20% sucrose over night. The brains were frozen on gaseous CO2 and processed into 16 μm coronal cryostat sections.

[5] = tested on: CFA-induced mechanical allodynia/hyperalgesia; assay: Complete Freund's adjuvant (CFA) inflammatory pain, von Frey test; format: in vivo, mice; conditions: administered concurrently with CFA, 1 hour and 24 hours after treatment
[6] = Physiological status of pMCAO mice (blood values, body weight, temperature, survival); format: in vivo; conditions: pMCAO 48 h experiment, 1 hour after surgery, mean ± SEM
Description: The physiological status of the mice was carefully monitored prior to and during pMCAO surgery in order to exclude the observed effects of treatment with dimeric PSD-95 inhibitors being due to secondary conditions (e.g. disease-related) resulting from the experimental procedure.
9.10 Body weight monitoring: The body weight of each mouse was registered during pre-training, before surgery, and at 24 and 48 hours after surgery and no differences were seen between the treatment groups (FIG. 13).
9.11 Temperature monitoring: The rectal temperature of the mouse was continuously measured using a thermocoupled probe connected to a Model Bat 12 unit (Physitemp). The temperature was measured prior to and 30 min after pMCAO in addition to 30 min and 2.5 hours after i.v. injection, i.e. 1 and 3 hours after pMCAO.
9.12 Blood gas analysis: One samples of venous blood was taken for blood gas analysis of PO2/PCO2 electrolytes, glucose, lactate, and hematocrit, 30 min after compound administration (1 hour after pMCAO). A capillary heparin coated tube was inserted along the inner corner of eye and turned until it penetrated the conjunctiva. A sample of blood (150 μl) was collected and stored on ice until gas analysis using the GEM Premier 300 blood gas instrument (Instrumentation Laboratory) Quality controls (QC ContrlIL9) were purchased from IL Sensor Systems. Also, no differences were detected in blood gas parameters (PO2/PCO2, pH, electrolytes, glu/lac), which were similar between the groups and within normal range, when compared to unmanipulated control mice (Table 4).

[7] = Human blood plasma stability assay; format: in vitro ADME; conditions: human, plasma; 0.25 mM, 37° C., in vitro; read-out: half-life (T1/2) in human blood plasma
Description: Ligands (dimeric PSD-95 inhibitors) for the PDZ domain of PSD-95 were dissolved in human blood plasma (270 μL; 3H Biomedical, Sweden, cat no 1300-1-P50) to a concentration of 0.25 mM (30 μL, of 2.5 mM) and incubated at 37° C. Aliquots (30 μL) were removed at various time intervals (e.g. 0, 5, 10, 20, 40, 80, 160, 320, 960, 1280, 2550, 4560 and 7240 min) and quenched with 60 μL, trichloroacetic acid (aq., 5%). The aliquots were vortexed, and incubated 15 min, at 4° C. prior to centrifugation at 18,000 g for 2 min. The supernatants were analyzed by analytical RP-HPLC (UV218) to quantify compound relative to time zero, and also evaluated qualitatively by ESI-LC/MS in order to identify the compound (m/z) in the sample. Procaine (positive control) and procainamide (negative control) were investigated at 50 μM to validate the procedure. Ligand recoveries following the precipitation procedure were between 85-95%.

[8] = Spinal cord detection of fluorescent PSD-95 inhibitors; format: in vivo, mice; conditions: conclusion for unlabeled compounds
Description: To investigate if AB143 and AB145 are able to enter spinal cord tissue, they were administered to the mice by intraperitoneal injection (30 mg/kg). The drug-treated mice were decapitated 30 min after injection, and the spinal cord was carefully dissected out, to which 5% trichloroacetic acid (TCA) (300 μL per 0.1 g tissue) was added and the tissue homogenized with an ultrasonic homogenizer (on ice). The homogenated tissue was vortexed and centrifuged for 10 min (20000 g at 4° C.). The supernatant was transferred to a test tube and evaporated, and the residue was reconstituted in water and its fluoresence intensity was determined by using a fluorescence plate reader (excitation/emission:470/525 nm). For quantification of the compounds, a standard curve was prepared by spiking a known amount of AB143 and AB145 into spinal cord tissue from control mice prior to homogenization, followed by work-up and analysis similar to the drug-treated mice.

Molecule	grip strength asymmetry between right and left front paw [1]	total grip strength (both paws) compared to baseline [1]	reduction of ischemic tissue damage (infarct volume) compared to saline ([2]; 6 hour post-surgical survival)	reduction in infarct size compared to saline ([2]; 48 hours after pMCAO)	total time spent on the rod [3]	ability to enter the brain (concluded from fluorescent surrogates) [4]	CFA-induced mechanical hyperalgesia [5]	blood pH ([6]; 3 nmol/g i.v.)	Hct [6]	[Ca2+] [6]	[K+] [6]	[Lactate] [6]	[Na+] [6]	pCO2 [6]	pO2 [6]	half-life at 0.25 mM [7]	ability to enter spinal cord tissue (concluded from fluorescent surrogates) [8]	short term learning skill improvement on rotarod compared to saline ([3]; trials T1-T4)
YGRKKRRQRRRKLSSIESDV [Tat-NR2B9c, reference compound]	observed	lost a significant amount of grip strength; also recorded: significant reduced grip strength	did not provide a statistically significant reduction; also recorded: not achieved	no statistically significant infarct reduction	65.7 ± 3.6 s	–	–	–	–	–	–	–	–	–	–	–	–	–
CC[C@H](C)[C@H](NC(=O)CCOCCOCCN(CCOCCOCCC(=O)N[C@H](C(=O)N[C@@H](CCC(=O)O)C(=O)N[C@H](C(=O)N[C@@H](CC(=O)O)C(=O)N[C@H](C(=O)O)C(C)C)[C@@H](C)O)[C@@H](C)CC)C(=O)[C@H](CCCNC(=N)N)NC(=O)[C@H](CCCNC(=N)N)NC(=O)[C@H](CCCNC(=N)N)NC(=O)[C@H](CCC(N)=O)NC(=O)[C@H](CCCNC(=N)N)NC(=O)[C@H](CCCNC(=N)N)NC(=O)[C@H](CCCCN)NC(=O)[C@H](CCCCN)NC(=O)[C@H](CCCNC(=N)N)NC(=O)CNC(=O)[C@@H](N)Cc1ccc(O)cc1)C(=O)N[C@@H](CCC(=O)O)C(=O)N[C@H](C(=O)N[C@@H](CC(=O)O)C(=O)N[C@H](C(=O)O)C(C)C)[C@@H](C)O [AB144, Tat-NPEG4(IETDV)2]	no asymmetry and not	no significant change in total grip strength; also recorded: No difference compared to baseline	–	–	83.5 ± 4.1 s	ability to cross the blood-brain barrier; also recorded: able to enter the brain	prevented the development of CFA-induced mechanical hyperalgesia	7.16 ± 0.01	43.5 ± 0.9%	1.30 ± 0.02 mmol/L	5.2 ± 0.20 mmol/L	0.93 ± 0.07 mmol/L	148 ± 2.0 mmol/L	95.7 ± 2.3 mmHg	50.2 ± 2.2 mmHg	81.7 ± 1.67 h	able to enter CNS spinal cord tissue at relevant concentrations	more pronounced short term learning skill improvement
